From EPA's ToxValDB 9.5 (doi:10.2903/j.efsa.2010.1868)
Values after ≈ are worked out from the molar mass of the structure shown.

What was measured:
Bibionidae = conditions: chronic/long-term; duration: 26 days; development
Daphnia magna = conditions: chronic/long-term; duration: 21 days; other
Perdix sp. = conditions: acute; oral; unspecified; mortality
Lepomis macrochirus = conditions: acute; duration: 96 hours; mortality
Pimephales promelas = conditions: chronic/long-term; duration: 33 days; other
Mus musculus = conditions: acute; oral; mortality
Anas platyrhynchos = conditions: short-term; oral; feed; mortality
Canidae = conditions: oral, Dog Other, body weight
Apis mellifera = conditions: acute; duration: 48 hours; oral; unspecified; mortality
Colinus virginianus = conditions: reproduction developmental
Typhlodromus pyri = assay: LR50; higher = less toxic; conditions: chronic/long-term; duration: 7 days; mortality

Structure (SMILES)	NOAEL (Rattus norvegicus; subchronic, duration: 90 days) [mg/kg-day]	LC50 (Tagia sp.; acute, duration: 14 days, mortality) [mg/kg]	NOEC (Tagia sp.; chronic/long-term, duration: 56 days) [mg/kg]	NOEC (Bibionidae) [mg/L]	NOEC (Daphnia magna) [mg/L]	LD50 (Perdix sp.) [mg/kg]	LC50 (Lepomis macrochirus) [µg/mL]	NOEC (Pimephales promelas) [mg/L]	LD50 (Mus musculus) [mg/kg]	LC50 (Anas platyrhynchos) [mg/kg-day]	NOAEL (Rattus norvegicus; chronic, duration: 2 years, organ weight) [mg/kg-day]	NOAEL (Rattus norvegicus; reproduction developmental, reproduction) [mg/kg-day]	NOAEL (Canidae; chronic, duration: 1 years) [mg/kg-day]	NOAEL (Canidae; subchronic, duration: 90 days) [mg/kg-day]	LD50 (Apis mellifera) [µg/piece]	NOEC (Colinus virginianus) [mg/kg-day]	LR50 (Typhlodromus pyri) [g/ha]
NC(Cc1ncn[nH]1)C(=O)O (configuration not stated) [1,2,4-Triazole-3-alanine]	90	–	–	–	–	–	–	–	–	–	–	–	–	–	–	–	–
OC(Cn1cncn1)(c1ccc(F)cc1)c1ccccc1F (configuration not stated) [Flutriafol]	–	> 1000	12.2	1.6	0.31	616	33 (≈ 110 µM)	4.8	179	435	1	13.5	5	5	> 2	35.8	204
